Assay results reported in article PMC3545186 (Biochemical Pharmacology, 2013).
Where “and” joins values, the source holds several entries; their conditions need not be identical. Equal values may be shown once. Numbered stars: 1 amine (or outer) side, 2 acyl side, 3 side chain; on linkers, the order of the positions; unused ones are H or OH. Bridge positions count the residues as written; N and C are the ends. Square brackets hold non-standard residues; d marks the D form. Peptide text beside a SMILES is read from it. I, II: the chains in the order shown. Actinocin(9to1) = Cc1c2oc3c(C)ccc(C(=O)[*:1])c3nc-2c(C(=O)[*:2])c(N)c1=O; NMeV = CN[C@H](C(=O)O)C(C)C; Sar = CNCC(=O)O

Assay: in vivo
Type: in vivo, mice
Settings: for Cmax / Tmax / half-life: mouse, in vivo, iv
[1] = Abcb1a/1b−/− knockout (parental strain FVB), 0.5 mg/kg
[2] = Abcc2−/− knockout (parental strain FVB), 0.5 mg/kg
[3] = Abcc2−/− mice, 0.5 mg/kg i.v., 0.5 mg/kg
[4] = WT mice, 0.5 mg/kg i.v., 0.5 mg/kg

- greater plasma AUC0–∞ in Abcb1a/1b−/− mice compared to WT (0.5 mg/kg i.v.): 1.9 fold
- higher plasma AUC0–6 h in Abcb1a/1b−/− mice compared to WT (0.5 mg/kg i.v.): 1.6 fold
- higher plasma Cmax at 15 min in Abcb1a/1b−/− mice compared to WT (0.5 mg/kg i.v.): 1.4 fold
- higher plasma concentration at 30 min in Abcb1a/1b−/− mice compared to WT (0.5 mg/kg i.v.): 1.7 fold
- longer elimination half-life (t1/2) in Abcb1a/1b−/− mice compared to WT (0.5 mg/kg i.v.): 1.5 fold
- Cmax [1]: 96.7 ± 12 ng/mL
- Tmax [1]: 0.25 h
- half-life [1]: 2.78 h
- plasma AUC0–∞ (Abcb1a/1b−/− mice, 0.5 mg/kg i.v., 0.5 mg/kg): 322.6 ng·h/mL
- Act D plasma concentration (Abcb1a/1b−/− mice, 0.25 h, 0.5 mg/kg i.v.): 96.7 ± 12.0 µg/L
- Act D plasma concentration (Abcb1a/1b−/− mice, 0.5 h, 0.5 mg/kg i.v., 0.5 mg/kg): 71.6 µg/L and 71.6 ± 12.3 µg/L
- Act D plasma concentration (Abcb1a/1b−/− mice, 2 h, 0.5 mg/kg i.v.): 35.8 ± 2.01 µg/L
- Act D plasma concentration (Abcb1a/1b−/− mice, 6 h, 0.5 mg/kg i.v.): 20.1 ± 0.78 µg/L
- half-life (Abcc2−/− knockout (FVB background), 0.5 mg/kg): 2.46 h
- Cmax [2]: 48 ± 11.1 ng/mL
- Tmax [2]: 0.25 h
- plasma AUC0–6 h [3]: 114.8 ng·h/mL
- plasma AUC0–∞ [3]: 145.2 ng·h/mL
- Act D plasma concentration (Abcc2−/− mice, 0.25 h, 0.5 mg/kg i.v.): 48.0 ± 11.1 µg/L
- Act D plasma concentration (Abcc2−/− mice, 0.5 h, 0.5 mg/kg i.v.): 37.7 ± 6.07 µg/L
- Act D plasma concentration (Abcc2−/− mice, 2 h, 0.5 mg/kg i.v.): 16.3 ± 3.73 µg/L
- Act D plasma concentration (Abcc2−/− mice, 6 h, 0.5 mg/kg i.v.): 8.6 ± 0.96 µg/L
- Cmax (FVB (wild type), 0.5 mg/kg): 68.6 ± 15.6 ng/mL
- Tmax (FVB (wild type), 0.5 mg/kg): 0.25 h
- half-life (FVB (wild type), 0.5 mg/kg): 1.92 h
- plasma AUC0–6 h [4]: 151.5 ng·h/mL
- plasma AUC0–∞ [4]: 168.1 ng·h/mL
- Act D plasma concentration (WT mice, 0.25 h, 0.5 mg/kg i.v.): 68.6 ± 15.6 µg/L
- Act D plasma concentration (WT mice, 0.5 h, 0.5 mg/kg i.v., 0.5 mg/kg): 43.3 µg/L and 43.3 ± 7.68 µg/L
- Act D plasma concentration (WT mice, 2 h, 0.5 mg/kg i.v.): 25.8 ± 4.78 µg/L
- Act D plasma concentration (WT mice, 6 h, 0.5 mg/kg i.v.): 6.0 ± 0.65 µg/L
Structure (SMILES): Cc1c2oc3c(C)ccc(C(=O)N[C@@H]4C(=O)N[C@H](C(C)C)C(=O)N5CCC[C@H]5C(=O)N(C)CC(=O)N(C)[C@@H](C(C)C)C(=O)O[C@@H]4C)c3nc-2c(C(=O)N[C@@H]2C(=O)N[C@H](C(C)C)C(=O)N3CCC[C@H]3C(=O)N(C)CC(=O)N(C)[C@@H](C(C)C)C(=O)O[C@@H]2C)c(N)c1=O [Act D, actinomycin D] (I: T[dV]P[Sar][NMeV] / II: T[dV]P[Sar][NMeV]; ester I:1-I:C, II:1-II:C; linker I:N-II:N via Actinocin(9to1))
